Columns and labels:
[1] = test system: immobilized TSP-1 (thrombospondin from human platelets); assay: ELISA binding of biotin-labeled peptides to immobilized TSP-1; details: biotin-labeled peptide 10 μg/mL, 3 h, room temperature, 0.5% BSA; absorbance 450 nm; n = 3 in triplicate
Experimental: (§1) Microtiter plates (Nunc, ThermoFisher Scientific, Courtaboeuf, France) were coated overnight at 4°C with 0.5 μg TSP-1 in sodium carbonate-bicarbonate (BupH) buffer (Thermo Fisher Scientific). Plates were washed with PBS 0.1% BSA (Sigma-Aldrich) and non-specific sites were saturated during 30 min using 1% (w/v) BSA in BupH buffer. Biotin-labeled peptide (10 μg/mL, determined after dose-response assay from 0.01 to 100 μg/mL) was added in buffer containing 0.5% (w/v) BSA and incubated for 3 h at room temperature. Non-labeled peptide (0.001 to 5 mg/mL) was used as selective competitor. Plates were washed with PBS containing 0.1% (w/v) BSA and treated for 30 min with mouse anti-biotin antibody. Bound antibody was quantified using the mouse IgG Elite Vectastain ABC kit (Vector Laboratories) followed by incubation with 1-Step Turbo TMB substrate as a chromogen (ThermoFisher Scientific). The reaction was stopped with 0.5 M H2SO4 and absorbance was read at 450 nm.

[2] = test system: immobilized TSP-1 (thrombospondin from human platelets); assay: ELISA competition by unlabeled TAX2; type: binding; details: biotinylated TAX2 10 μg/mL; unlabeled competitor 0.001 to 5 mg/mL
Experimental: as §1

TSP-1 = assay: Microscale thermophoresis; type: binding; details: data not shown
HUVECs = assay: Wound-healing migration assay; type: cell-based, human; details: 100 μM, 9 h, after mitomycin C, mean of 3 in quadruplicate
Experimental: Figure 2 TAX2 peptide impairs endothelial cell migration and inhibits angiogenesis in vitro and ex vivo A. HUVECs were treated with TAX2 (100 μM) or scrambled peptide (Ctrl, 100 μM). CD47 was immunoprecipitated from total protein lysates using anti-CD47 (clone B6H12) and non-specific IgGs were used as a negative control. Immunocomplexes were then submitted to SDS-PAGE and immunoblotted (IB) using specific TSP-1 and CD47 antibodies. Histogram represents the quantification of co-immunoprecipitated TSP-1 relative to immunoprecipitated CD47. Results are expressed as percentage compared to control (n = 3 separate experiments, t test). B. HUVECs (1 × 10^5 per well) were grown at confluence and then cell proliferation was inhibited by incubating with 10 μg/mL mitomycin C for 2 h. […] Graph represents the quantification of the wounded area. […] Hoechst-stained migrating cells attached on outside surface of the top chamber were photographed (20× objective) and counted. Results are expressed as percentage of migrated cells as compared to control. […] After 8 h incubation, HUVEC tube-like formation was observed on an inverted microscope (40×) and quantification of network total length was done using ImageJ software. […] Data are expressed as the mean ± SE from at least 3 independent experiments, each performed in triplicate. […] The transcriptional level of TSP-1 was assessed by RT-PCR and normalized to β-actin. […]

[3] = test system: MIA PaCa-2 xenograft in BALB/C nu/nu mice; assay: MIA PaCa-2 human pancreatic carcinoma xenograft growth; type: in vivo, human tumor xenograft in mouse
Experimental: For the subcutaneous melanoma tumor model, suspensions of B16F1 cells (2.5 × 10^5 cells in 100 μL RPMI-1640 medium) were subcutaneously injected into the left flank of different randomized series of syngeneic C57BL/6 mice (n = 8–10 per group), as previously described. Intraperitoneal administrations of peptide (10 mg/kg mouse weight) or controls (physiological serum 0.9% (w/v) NaCl or a scrambled peptide) were performed at days 3, 5 and 7. In human pancreatic carcinoma xenograft experiments, 3 × 10^6 MIA PaCa-2 cells/mouse were implanted subcutaneously into the left flank of BALB/C athymic nude mice, then TAX2 intraperitoneal treatments (10 mg/kg mouse weight) were performed 3 times a week during 4 weeks starting at day 10 after tumor cells inoculation. Tumor volume was determined according to v = 0.5 A × B^2, where A denotes the largest dimension of the tumor and B represents the smallest dimension. At days indicated, mice were sacrificed and tumors were surgically extracted and fixed in 4% paraformaldehyde for further morphologic studies and for magnetic resonance imaging, or frozen for immunohistochemistry. Mice were also weighed every 2–3 days and daily checked for any modification in their behavior. Loss of 15% body weight was an indication for euthanasia as well as severe tumor necrosis, as it was sometimes associated with skin ulceration that would result in loss of body fluid and/or infection.

**Q.** For “CEVSQLLKGDAC (disulfide) [TAX2, CD47-derived cyclic disulfide dodecapeptide …]”, which “binding to immobilized TSP-1” value [1] is on record?
**A.** binds to immobilized TSP-1

**Q.** What about the “competition with biotinylated TAX2 for TSP-1 binding” value [2] of the same sequence?
**A.** Competitive binding occurred in a dose-dependent fashion

**Q.** And the “binding to TSP-1 by microscale thermophoresis” value (TSP-1)?
**A.** confirmed

**Q.** And the “endothelial cell migration rate (wound healing)” value (HUVECs)?
**A.** reduced migration rate

**Q.** What about the xenograft growth delay ([3]; 10 mg/kg i.p. 3 times a week for 4 weeks from day 10) of the same sequence?
**A.** strong delay

**Q.** And the “decrease of tumor volume at day 38” value ([3]; 10 mg/kg i.p. 3 times a week for 4 weeks from day 10, n = 9, p < 0.05)?
**A.** 2 fold

**Q.** What about the “tumor volume at day 24, xenograft” value ([3]; 10 mg/kg i.p. 3 times a week from day 10, n = 15) of the same sequence?
**A.** no differences in measured tumor volume were observed

**Q.** And the “inhibition rate compared to 5 mg/kg bevacizumab twice weekly i.p.” value ([3]; MIA PaCa-2 xenograft, bevacizumab data from ref [56])?
**A.** higher inhibition rates

Source: publication PMC4627230, “Identification of TAX2 peptide as a new unpredicted anti-cancer agent” (Oncotarget, 2015)
